# Marks after values point to notes of the source that are not given here.
# Assay: Polymorph screening (equilibration, anti-solvent, slow evaporation, slow cooling, temperature cycling, heating-cooling; XRPD and SFC)
# Assay type: physicochemical
# Description: This polymorph screening program of compound I-1 free form was performed with two batches of the pure enantiomer. Both batches are crystalline and is assigned as Form A. The polymorphic behaviors of the enantiomer were investigated by equilibration at 25° C. and 50° C., equilibration under a temperature cycle, crystallization from hot saturated solutions by slow cooling, slow evaporation, precipitation by addition of anti-solvent, and DSC heating-cooling cycle experiments. Relative stability of identified polymorphs was investigated by competitive slurry experiments.
# (§1) About 50 mg of I-1 Form A was weighed into a 2 mL glass vial and equilibrated in suitable amount of solvents (pretreated by molecular sieves) at 25° C. for 2 weeks with a stirring plate and with protection from light. Obtained suspensions were filtered with 0.45 μm nylon membrane and the solid parts (wet cake) were investigated by XRPD. When differences were observed, additional investigations were performed (e.g. DSC, TGA, ^1H-NMR, SFC).
# as §1, with “into” for “into a”, “vials” for “vial”, “50°” for “25°”, “10 days” for “2 weeks”, “investigation was” for “investigations were”
# I-1 Form A was dissolved in a good solvent. […] The solvents used were pretreated by molecular sieve. Precipitates were collected by filtration. The solid part (wet cake) was investigated by XRPD. […] When differences were observed, additional investigations were performed (e.g. DSC, TGA, ^1H-NMR, SFC).
# Based on approximate solubility results, I-1 Form A was dissolved in suitable amount of solvents (pretreated by molecular sieves). Obtained solutions were filtered by 0.45 μm nylon filter. […] Solid residues were examined for their polymorphic form. When differences were observed, additional investigations were performed (e.g. DSC, TGA, ^1H-NMR, SFC).
# Approximate 50 mg of batch I-1 Form A were dissolved in the minimal amount of selected solvents (without pretreatment by molecular sieves) at 50° C. Obtained solutions were filtered by 0.45 μm nylon filter. […] Precipitates were collected by filtration. The solid parts (wet cake) were investigated by XRPD. When differences were observed, additional investigations were performed (e.g. DSC, TGA, ^1H-NMR, SFC). When no precipitation was obtained or only a few solids were obtained, the solutions were placed at 5° C. for crystallization.
# About 50 mg of I-1 Form A was equilibrated in different solvents (pretreated by molecular sieves) under a temperature cycle between 5° C. to 50° C. at a heating/cooling rate of 0.2° C./min for 10 cycles and with protection from light. After 10 cycles, precipitates were collected at 5° C. by filtration. The solid parts (wet cake) were investigated by XRPD. When differences were observed, additional investigations were performed (e.g. DSC, TGA, 1H-NMR, SFC).
# Polymorphic behavior of I-1 Form A was investigated by two different heating-cooling cycles of DSC. Cycle 1:30° C. to 280° C. at 10° C./min; 280° C. to −20° C. at 20° C./min; reheat to 300° C. at 10° C./min. Cycle 2:30° C. to 280° C. at 10° C./min; 280° C. to-20° C. at 2° C./min; reheat to 300° C. at 10° C./min.
structure (smiles),measurement,setting,value
"N#Cc1c(-c2cc(NC(=O)c3cc(F)cc(C(F)(F)F)c3)c3c(c2)C(=O)N[C@H]3c2cc(F)ccc2Cl)ccc2ncnn12 [Compound I-1, (R)-N-(3-(2-chloro-5-fluorophenyl)-6-(5-cyano-[1,2,4]triazolo[1,5-a]pyridin-6-yl)-1-oxoisoindolin-4-yl)-3-fluoro-5-(trifluoromethyl)benzamide]",XRPD,equilibration at 50° C. for 10 days in Ethyl acetate,I-1 Form A
same,XRPD,equilibration at 50° C. for 10 days in Isopropyl acetate,I-1 Form A
same,XRPD,"equilibration at 50° C. for 10 days in MeOH/water(55:45, v/v) a.w. 0.7",I-1 Form A
same,XRPD,equilibration at 50° C. for 10 days in Methanol,III-1 Form A
same,ee %(SFC),"equilibration at 50° C. for 10 days in Methanol, SFC immediately after preparation",ee % (SFC): 48.4%*
same,XRPD,equilibration at 50° C. for 10 days in Methyl ethyl ketone,I-1 Form A
same,XRPD,"equilibration at 50° C. for 10 days in THF/water(85:15, v/v) a.w. 0.9",I-1 Form A
same,XRPD,equilibration at 50° C. for 10 days in Water,I-1 Form A
same,XRPD,equilibration at 50° C. for 10 days in t-Butyl methyl ether,I-1 Form A
same,ee %(SFC),"equilibration at 50° C. in 1,4-Dioxane, added I-1 Form B seeds and stirred for 4 days",ee %(SFC): 80.1%*
same,ee %(SFC),"equilibration at 50° C. in 1,4-Dioxane, with molecular sieve and stirred for 6 days",ee %(SFC): 88.26%*
same,ee %(SFC),"equilibration at 50° C. in 1,4-Dioxane, without molecular sieve and stirred for 6 days",ee %(SFC): 81.26%*
same,ee %(SFC),"equilibration at 50° C. in THF, added I-1 Form B seeds and stirred for 4 days",ee %(SFC): 82.5%*
same,ee %(SFC),"equilibration in ACN/water(80:20, v/v), 25° C., pH 7.27, III-1 Form A seeds, 3 days",ee %(SFC): 90.9%*
same,ee %(SFC),"equilibration in ACN/water(80:20, v/v), 25° C., pH 7.27, III-1 Form A seeds, 8 days",ee %(SFC): 89.3%*
same,ee %(SFC),"equilibration in ACN/water(80:20, v/v), 50° C., pH 4.48, 3 days",ee %(SFC): 89.6%*
same,ee %(SFC),"equilibration in ACN/water(80:20, v/v), 50° C., pH 4.48, 5 days",ee %(SFC): 88.9%*
same,ee %(SFC),"equilibration in ACN/water(80:20, v/v), 50° C., pH 6.79, 3 days",ee %(SFC): 67.4%*
same,ee %(SFC),"equilibration in EtOH/water(50:50, v/v), 50° C., pH 6.82, 3 days",ee %(SFC): 91.6%*
same,ee %(SFC),"equilibration in Methanol, 50° C., pH 6.21, 3 days",ee %(SFC): 87.9%*
same,ee %(SFC),"slow cooling 50° C. to 5° C. from 1,4-Dioxane, SFC immediately after preparation",ee %(SFC): −0.2%*
same,Comments (outcome),slow cooling 50° C. to 5° C. from ACN,clear solution
same,Comments (outcome),slow cooling 50° C. to 5° C. from Acetone,clear solution
same,Comments (outcome),slow cooling 50° C. to 5° C. from Benzyl alcohol,clear solution
same,Comments (outcome),slow cooling 50° C. to 5° C. from MEK,clear solution
same,Comments (outcome),slow cooling 50° C. to 5° C. from MeOH,clear solution
same,Comments (outcome),slow cooling 50° C. to 5° C. from THF,clear solution
same,XRPD,"slow evaporation at room temperature from 1,4-Dioxane",Amorphous form
same,XRPD,slow evaporation at room temperature from ACN,Amorphous form
same,XRPD,slow evaporation at room temperature from Acetone,Amorphous form
same,XRPD,slow evaporation at room temperature from MeOH,III-1D
same,XRPD,slow evaporation at room temperature from THF,Amorphous form
same,ee %(SFC),slow evaporation from MeOH (not pretreated by molecular sieves) at 25° C. for 12 days,ee %(SFC): 98.0%*
same,ee %(SFC),"slow evaporation from MeOH/DCM(1:1, v/v), added I-1 Form D seeds",ee %(SFC): 88.9%*
same,ee %(SFC),"slow evaporation from MeOH, SFC immediately after preparation",ee % (SFC): 68.6%*
same,Comments (outcome),"temperature cycling 5° C. to 50° C. in 1,4-Dioxane, target concentration: 250 mg/mL","Clear solution, target concentration: 250 mg/mL"
same,Comments (outcome),"temperature cycling 5° C. to 50° C. in THF/water(85:15, v/v) a.w. 0.9, target concentration: 250 mg/mL","Clear solution, target concentration: 250 mg/mL"
same,Comments (outcome),"temperature cycling 5° C. to 50° C. in Tetrahydrofuran, target concentration: 250 mg/mL","Clear solution, target concentration: 250 mg/mL"
same,XRPD,"temperature cycling 5° C. to 50° C., 10 cycles, in 2-MeTHF",I-1 Form A
same,XRPD,"temperature cycling 5° C. to 50° C., 10 cycles, in ACN/water(80:20, v/v) a.w. 0.9",I-1 Form A
same,XRPD,"temperature cycling 5° C. to 50° C., 10 cycles, in Acetone",I-1 Form A
same,XRPD,"temperature cycling 5° C. to 50° C., 10 cycles, in Acetone/water(60:40, v/v) a.w. 0.8",I-1 Form A
same,XRPD,"temperature cycling 5° C. to 50° C., 10 cycles, in Acetonitrile",I-1 Form A
same,XRPD,"temperature cycling 5° C. to 50° C., 10 cycles, in Benzyl alcohol",I-1 Form A
same,XRPD,"temperature cycling 5° C. to 50° C., 10 cycles, in EtOH/water(50:50, v/v) a.w. 0.9",I-1 Form A
same,XRPD,"temperature cycling 5° C. to 50° C., 10 cycles, in Ethanol",I-1 Form A
same,XRPD,"temperature cycling 5° C. to 50° C., 10 cycles, in Ethyl acetate",I-1 Form A
same,XRPD,"temperature cycling 5° C. to 50° C., 10 cycles, in MeOH/water(55:45, v/v) a.w. 0.7",I-1 Form A
same,ee %(SFC),"temperature cycling 5° C. to 50° C., 10 cycles, in MeOH/water(55:45, v/v), SFC immediately after preparation",ee %(SFC): 100.0%*
same,ee %(SFC),"temperature cycling 5° C. to 50° C., 10 cycles, in Methanol, SFC immediately after preparation",ee %(SFC): 89.4%*
same,XRPD,"temperature cycling 5° C. to 50° C., 10 cycles, in Methyl ethyl ketone",I-1 Form A
